≈ marks a conversion by molar mass, not a printed value. Read-outs that look alike come from different tables or passages of the source.

Data set [1] in a line: Intracellular total glutathione (GSH). The class given is cell-based, rat. The following applies: rat. The method in brief: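 Rat hepatoma H4IIE cells were exposed to compound in dosing solutions made in complete culture medium, then harvested for biochemical measurement of intracellular total glutathione as an oxidative-stress marker. Values are exposure-group means, n=3-7.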

Data set [2] in a line: MTT reduction. The class given is cell-based, rat. The method in brief:
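Cardiomyocytes from neonatal rats were exposed to the compound and cell function was monitored by tetrazolium (MTT) dye reduction. Values are group means over n=3-7.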

Data set [3] can be described thus: Solubility in culture medium (nephelometry). The class given is physicochemical. The following applies: dosing medium with 20% serum, 37° C., read-out: Highest Soluble Concentration Tested. The method, then:
Solubility: The test compounds were prepared in DMSO and the appropriate amounts were then added to complete medium containing 10% bovine serum […] at 37° C. The samples were evaluated using a light scattering technique and a Nephaloskan instrument.
Solubility Assay: The test compounds were prepared in DMSO and the appropriate amounts were then added to complete medium containing 10% bovine serum at 37° C. The samples were evaluated using a light scattering technique and a Nephaloskan instrument.

A short description of a further data set: Intracellular ATP levels. The class given is cell-based, rat. The method in brief: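 Neonatal rat cardiomyocytes exposed to the compound; cellular ATP measured by luciferin/luciferase luminescence after lysis with an ATPase-inhibiting reagent, quantified against an ATP calibration curve in matching matrix (pmol ATP/million cells). Background-corrected luminescence expressed as percent of control; means of n=3-7.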

Data set [4] is described as follows: Intracellular total glutathione (GSH). The following applies: rat. Format: cell-based, rat. The method in brief:
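Intracellular total glutathione serves as an oxidative-stress marker in neonatal rat cardiomyocytes exposed to compound in vitro. Cells were harvested for biochemical analysis, and values are means of each exposure group (n=3-7).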
This is another data set of the same source.

Data set [5] is described as follows: MemTox membrane leakage (AK / α-GST). Format: cell-based, rat. The method in brief: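 Neonatal rat cardiomyocytes were dosed, and the culture medium was collected at the end of exposure to measure total leaked adenylate kinase (luminescence) and/or α-GST (ELISA, 450/650 nm). Percent dead cells was set against 1 mM digitonin as maximum release, then converted to percent live. Values are means of n=3-7.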

Data set [6] is described as follows: MTT reduction. Format: cell-based, rat. The following applies: rat. The method in brief: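 Rat hepatoma H4IIE cells exposed to compound prepared in complete culture medium, with tetrazolium dye (MTT) reduction used as a mitochondrial-function read-out of cytotoxicity. Values are means of each exposure group (n=3-7).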
Background: Tetrazolium dyes change colour on reduction, which living cells bring about.

[7] abbreviates: 37 °C, plasma or biological fluid, kinetic from dmso stock, H4IIE 24 HR.

Consider `COc1cccc2c1C(=O)c1c(O)c3c(c(O)c1C2=O)C[C@@](O)(C(=O)CO)C[C@@H]3O[C@H]1C[C@H](N)[C@H](O)[C@H](C)O1` [ADRIAMYCIN, Adriamycin], for which the CC50 at 24 h in data set [1] (Total GSH TC50) worked out at 28 µM; in the data set “MTT reduction [2]” (rat) it was 1000 nM; in “Intracellular ATP levels” (rat) it was 6 µM; in data set [4], 1 µM; in data set [5] (rat), 7 µM; in the data set “MTT reduction [6]” (MTT TC50), 13 µM. Further, the CC50 at 1 h (in the data set “MTT reduction [2]” (rat); in the data set “Intracellular ATP levels” (rat); in data set [4]; in data set [5] (rat)) was over 300 µM in each case. For the same molecule, the CC50 at 3 h is 41 µM in the data set “MTT reduction [2]” (rat), 62 µM in “Intracellular ATP levels” (rat), 61 µM in data set [4] and over 300 µM in data set [5] (rat). Besides, the CC50 at 6 h in “MTT reduction [2]” (rat) is 18 µM; in the data set “Intracellular ATP levels” (rat) it was 29 µM; in data set [4], 23 µM; in data set [5] (rat) it was 40 µM. Further, the solubility in data set [3] (37 °C, plasma or biological fluid, kinetic from dmso stock, CM 1 HR) was 100 µM (≈ 54.4 µg/mL); in data set [3] (37 °C, plasma or biological fluid, kinetic from dmso stock, CM 3 HR), 100 µM (≈ 54.4 µg/mL); in data set [3] (37 °C, plasma or biological fluid, kinetic from dmso stock, CM 6 HR) it was 100 µM (≈ 54.4 µg/mL); in data set [3] (37 °C, plasma or biological fluid, kinetic from dmso stock, CM 24 HR), 100 µM (≈ 54.4 µg/mL); in data set [3] (setting [7]), 100 µM (≈ 54.4 µg/mL); in data set [3] (H4IIE 24 HR, listed as DOXORUBICIN), 300 µM (≈ 163 µg/mL).

For `COc1cccc2c1C(=O)c1c(O)c3c(c(O)c1C2=O)C[C@@](O)(C(=O)CO)C[C@@H]3O[C@H]1C[C@H](N)[C@@H](O)[C@H](C)O1` [EPIRUBICIN, epirubicin], the CC50 at 24 h in data set [1] (Total GSH TC50) amounted to 52 µM; in “MTT reduction [2]” (rat), 16000 nM; in “Intracellular ATP levels” (rat), 19 µM; in data set [4], 13 µM; in data set [5] (rat) it was 35 µM; in the data set “MTT reduction [6]” (MTT TC50) it was 81 µM. The solubility turned out to be 100 µM (≈ 54.4 µg/mL) in data set [3] (setting [7]) and 300 µM (≈ 163 µg/mL) in data set [3] (CM 24 HR).

For `CC(=O)[C@]1(O)Cc2c(O)c3c(c(O)c2[C@@H](O[C@H]2C[C@H](N)[C@H](O)[C@H](C)O2)C1)C(=O)c1ccccc1C3=O` [IDARUBICIN, idarubicin], the CC50 at 24 h in data set [1] (Total GSH TC50) was 4 µM; in the data set “MTT reduction [2]” (rat), under 1000 nM; in the data set “Intracellular ATP levels” (rat) it was 2 µM; in data set [4], under 1 µM; in data set [5] (rat), under 1 µM; in the data set “MTT reduction [6]” (MTT TC50), 3 µM. Also, the solubility in data set [3] (dosing (complete culture) medium with 20% serum, plasma or biological fluid, kinetic from dmso stock, CM 24 HR) came to 20 µM (≈ 9.95 µg/mL).

On to `COc1cccc2c1C(=O)c1c(O)c3c(c(O)c1C2=O)C[C@@](O)(C(=O)CO)C[C@@H]3O[C@H]1C[C@H](N)[C@H](O[C@@H]2CCCCO2)[C@H](C)O1` [PIRARUBICIN, pirarubicin], for which the CC50 at 24 h in data set [1] (H4IIE rat hepatoma cells, H4IIE, 24 HR, read-out: Total GSH TC50) was found to be 17 µM; in “MTT reduction [2]” (neonatal rat cardiomyocytes, rat cardiomyocytes (CM), 24 HR exposure, read-out: MTT TC50), 7000 nM; in “Intracellular ATP levels” (neonatal rat cardiomyocytes, rat cardiomyocytes (CM), 24 HR exposure, read-out: ATP TC50), 7 µM; in data set [4] (neonatal rat cardiomyocytes, CM, 24 HR, read-out: Total GSH TC50), 6 µM; in data set [5] (neonatal rat cardiomyocytes, rat cardiomyocytes (CM), 24 HR exposure, read-out: MemTox TC50) it was 6 µM; in “MTT reduction [6]” (H4IIE rat hepatoma cells, H4IIE, 24 HR exposure, read-out: MTT TC50) it was 16 µM. Moreover, the solubility in data set [3] (plasma or biological fluid, kinetic from dmso stock, CM 24 HR) came out at 50 µM (≈ 31.4 µg/mL).

On to `O=C1c2c(O)ccc(O)c2C(=O)c2c(NCCNCCO)ccc(NCCNCCO)c21` [MITOXANTRONE, mitoxantrone], for which the CC50 at 24 h in data set [1] (Total GSH TC50) was 247 µM; in the data set “MTT reduction [2]” (rat) it was 1000 nM; in “Intracellular ATP levels” (rat), 2 µM; in data set [4] it was under 1 µM; in data set [5] (rat), 2 µM; in “MTT reduction [6]” (MTT TC50), over 300 µM. Moreover, the solubility in data set [3] (CM 24 HR) and in data set [3] (H4IIE 24 HR) was 300 µM (≈ 133 µg/mL) throughout.
